Measured values: PMC4319572 (Structure (London, England : 1993), 2015)
Changes are numbered by the printed parent chain. One block for each molecule: values may come before it.

What was measured:
[1] = biological target: T1, Rgd1p F-BAR domain (residues 1-324) (Saccharomyces cerevisiae, UniProt P38339, R141D); assay: surface plasmon resonance; type: binding; conditions: 30 μM protein over 10% (mole/mole) PtdIns(4,5)P2 in DOPC
T1 sequence (P38339 1-324 R141D): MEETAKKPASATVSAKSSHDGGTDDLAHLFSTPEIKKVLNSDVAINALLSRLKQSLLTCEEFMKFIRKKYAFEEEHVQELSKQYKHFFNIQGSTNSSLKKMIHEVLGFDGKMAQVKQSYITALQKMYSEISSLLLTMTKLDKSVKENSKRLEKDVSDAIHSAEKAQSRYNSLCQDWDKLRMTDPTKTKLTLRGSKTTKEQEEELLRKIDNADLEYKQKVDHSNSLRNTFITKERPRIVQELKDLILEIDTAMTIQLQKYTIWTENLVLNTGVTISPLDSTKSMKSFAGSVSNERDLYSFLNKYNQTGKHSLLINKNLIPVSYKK

[2] = biological target: T2, Rgd1p F-BAR domain (residues 1-324) (Saccharomyces cerevisiae, UniProt P38339, K149E/K153E); assay: surface plasmon resonance; type: binding; conditions: 30 μM protein over 10% (mole/mole) PtdIns(4,5)P2 in DOPC
T2 sequence (P38339 1-324 K149E/K153E): T1 sequence (P38339 1-324 R141D) with D141R, K149E, K153E

[3] = biological target: T3, Rgd1p F-BAR domain (residues 1-324) (Saccharomyces cerevisiae, UniProt P38339, R141D/K145E); assay: surface plasmon resonance; type: binding; conditions: 30 μM protein over 10% (mole/mole) PtdIns(4,5)P2 in DOPC
T3 sequence (P38339 1-324 R141D/K145E): T1 sequence (P38339 1-324 R141D) with K145E

[4] = biological target: T4, Rgd1p F-BAR domain (residues 1-324) (Saccharomyces cerevisiae, UniProt P38339, R141D/K142E); assay: surface plasmon resonance; type: binding; conditions: 30 μM protein over 10% (mole/mole) PtdIns(4,5)P2 in DOPC
T4 sequence (P38339 1-324 R141D/K142E): T1 sequence (P38339 1-324 R141D) with K142E

[5] = biological target: T5, Rgd1p F-BAR domain (residues 1-324) (Saccharomyces cerevisiae, UniProt P38339); assay: competition off PtdIns; type: binding; conditions: membranes with 10% (mole/mole) PtdIns(4,5)P2; competitive
T5 sequence (P38339 1-324): T1 sequence (P38339 1-324 R141D) with D141R

[6] = biological target: the molecule itself; assay: crystal structure
[7] = biological target: the molecule itself; assay: AUC

- % reduction of binding vs wild type at 30 μM protein [1]: > 75%
- binding relative to wild type [2]: Glutamate substitutions at K149 and K153
Molecule: CCCCCCCC/C=C\CCCCCCCC(=O)OC[C@H](COP(=O)(O)O[C@@H]1[C@H](O)[C@H](O)[C@@H](OP(=O)(O)O)[C@H](OP(=O)(O)O)[C@H]1O)OC(=O)CCCCCCC/C=C\CCCCCCCC [dioleoyl-PtdIns(4,5)P2]
- binding relative to wild type [3]: as seen for R141D/K142E and R141D/K145E doubly-mutated variants
- binding relative to wild type [4]: as seen for R141D/K142E and R141D/K145E doubly-mutated variants

Molecule: O=P(O)(O)O[C@H]1[C@H](O)[C@@H](O)[C@H](OP(=O)(O)O)[C@@H](OP(=O)(O)O)[C@H]1O [isolated headgroup of PtdIns(3,4)P2]
- competition [5]: isolated headgroups of these three phosphoinositides were equally potent in their ability to compete

Molecule: O=P(O)(O)O[C@H]1[C@H](O)[C@@H](OP(=O)(O)O)[C@H](O)[C@@H](OP(=O)(O)O)[C@H]1O [isolated headgroup of PtdIns(3,5)P2]
- competition [5]: isolated headgroups of these three phosphoinositides were equally potent in their ability to compete

Molecule: O=P(O)(O)O[C@@H]1[C@H](O)[C@H](O)[C@@H](OP(=O)(O)O)[C@H](OP(=O)(O)O)[C@H]1O [isolated headgroup of PtdIns(4,5)P2]
- competition [5]: isolated headgroups of these three phosphoinositides were equally potent in their ability to compete

B1: Rgd1p F-BAR domain (residues 24-333) (domain or fragment, S. cerevisiae, UniProt P38339 24-333, looked up)
chain: DDLAHLFSTPEIKKVLNSDVAINALLSRLKQSLLTCEEFMKFIRKKYAFEEEHVQELSKQYKHFFNIQGSTNSSLKKMIHEVLGFDGKMAQVKQSYITALQKMYSEISSLLLTMTKLRKSVKENSKRLEKDVSDAIHSAEKAQSRYNSLCQDWDKLRMTDPTKTKLTLRGSKTTKEQEEELLRKIDNADLEYKQKVDHSNSLRNTFITKERPRIVQELKDLILEIDTAMTIQLQKYTIWTENLVLNTGVTISPLDSTKSMKSFAGSVSNERDLYSFLNKYNQTGKHSLLINKNLIPVSYKKHPSMNHGQK
- stoichiometry N [6]: 2

B2: Hof1p F-BAR domain (residues 1-300) (domain or fragment, S. cerevisiae, UniProt Q05080 1-300, looked up)
chain: MSYSYEACFWDPNDNGVNILLGHISQGIRSCDSMILFFKQRSELEKDYARRLGAITGKLDKDIGTNMDYGKLNETFNVVLSVEKARAQSHSKQSEILFRQIYTDTKAFAANLQARYTTLSGKIERLRMDKFNKKKGCEVLQKKLQDAQIRFRDLQLNENNMIGAKRVEHNKRELLKWESNSQEYKVQLDVLKQEYKASQKFWIHEWAQLSCELQEMENARISFLQSKLQQFATSSMETYILEQTKMDMLTNHLNSFTAADEISTFSKENGTGRLKHKTSKGDMNSSANWAQMSSISTTSK
modifications: selenomethionine (SeMet) in the protein used for the crystals
- stoichiometry N [6]: 2
- Kd [7]: ~3000 nM
